From patent publication US20230303553A1, “CDK6/DYRK2 DUAL-TARGET INHIBITOR, AND PREPARATION METHOD THEREFOR AND USE THEREOF” (JIANGSU TASLY DIYI PHARMACEUTICAL CO., LTD., priority 2021, published 2023)
Counter-ions that a name gives are not always drawn.

Experiments:
[1] = biological target: DYRK2 kinase (Homo sapiens (Human), UniProt Q92630); assay: DYRK2 kinase activity, 33P-ATP / Woodtide substrate; assay type: biochemical
[2] = biological target: CDK6 kinase (Homo sapiens (Human), UniProt Q00534); assay: CDK6 kinase activity, Lance Ultra TR-FRET; assay type: biochemical
Chain of CDK6 kinase (Q00534 whole entry): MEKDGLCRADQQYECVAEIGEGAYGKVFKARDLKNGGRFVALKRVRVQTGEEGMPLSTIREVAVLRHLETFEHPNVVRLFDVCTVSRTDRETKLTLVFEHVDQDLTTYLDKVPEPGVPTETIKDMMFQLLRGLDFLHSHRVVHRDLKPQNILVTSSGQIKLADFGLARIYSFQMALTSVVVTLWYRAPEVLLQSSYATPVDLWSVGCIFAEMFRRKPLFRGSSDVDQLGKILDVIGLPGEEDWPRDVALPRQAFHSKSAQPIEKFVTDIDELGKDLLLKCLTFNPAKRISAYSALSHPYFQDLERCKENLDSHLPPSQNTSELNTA
Chain of CDK6 kinase (P24385 whole entry partner): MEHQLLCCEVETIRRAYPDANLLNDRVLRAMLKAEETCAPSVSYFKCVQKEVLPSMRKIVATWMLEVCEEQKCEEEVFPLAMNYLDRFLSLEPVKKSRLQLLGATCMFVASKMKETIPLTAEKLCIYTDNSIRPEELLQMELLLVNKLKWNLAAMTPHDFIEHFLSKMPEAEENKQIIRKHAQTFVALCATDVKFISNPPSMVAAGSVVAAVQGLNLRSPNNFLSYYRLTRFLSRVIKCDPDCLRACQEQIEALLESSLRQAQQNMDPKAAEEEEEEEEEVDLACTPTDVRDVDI

[3] = tested on: xenografts of human lung cancer A549; assay: Human lung cancer A549 xenografts in nude mice; assay type: in vivo, BALB/c nude mice; details: A549 xenograft, 150 mg/kg intragastric once every 2 days, 21 days
[4] = tested on: gastric cancer (MGC-803) cell line; assay: MTT cancer cell proliferation, MGC-803; assay type: cell-based; details: Homo sapiens, MGC-803; MTT, 72 hours; read-out: IC50 proliferation MGC-803
[5] = tested on: triple negative breast cancer (MDA-MB-231) cell line; assay: MTT cancer cell proliferation, MDA-MB-231; assay type: cell-based; details: Homo sapiens, MDA-MB-231, read-out: IC50 proliferation MDA-MB-231; MTT, 72 hours
[6] = tested on: lung cancer (A-549); assay: MTT cancer cell proliferation, A-549; assay type: cell-based; details: Homo sapiens, A549; MTT, 72 hours; read-out: IC50 proliferation A-549
[7] = tested on: non-small cell lung cancer (NCI-H1299) cell line; assay: MTT cancer cell proliferation, NCI-H1299; assay type: cell-based; details: Homo sapiens, NCI-H1299; MTT, 72 hours; read-out: IC50 proliferation NCI-H1299
[8] = tested on: human glioma (U251) cell line; assay: MTT cancer cell proliferation, U251; assay type: cell-based; details: U-251, MTT, 72 hours, read-out: IC50 proliferation U251
[9] = tested on: liver cancer (HepG2) cell line; assay: MTT cancer cell proliferation, HepG2; assay type: cell-based; details: Homo sapiens, HepG2; MTT, 72 hours; read-out: IC50 proliferation HepG2
[10] = tested on: colon cancer (HT-29) cell line; assay: MTT cancer cell proliferation, HT-29; assay type: cell-based; details: Homo sapiens, HT-29; MTT, 72 hours; read-out: IC50 proliferation HT-29
[11] = tested on: leukemia (K562) cell line; assay: MTT cancer cell proliferation, K562; assay type: cell-based; details: Homo sapiens, K562; MTT, 72 hours; read-out: IC50 proliferation K-562
[12] = tested on: human breast cancer (MCF-7); assay: MTT cancer cell proliferation, MCF-7; assay type: cell-based; details: MCF7, MTT, 72 hours, read-out: IC50 proliferation MCF-7
[13] = tested on: ovarian cancer (SK-OV-3) cell line; assay: MTT cancer cell proliferation, SK-OV-3; assay type: cell-based; details: Homo sapiens, SK-OV-3; MTT, 72 hours; read-out: IC50 proliferation SK-OV-3
[14] = tested on: pancreatic cancer (Panc-1) cell line; assay: MTT cancer cell proliferation, Panc-1; assay type: cell-based; details: Homo sapiens, PANC-1; MTT, 72 hours; read-out: IC50 proliferation Panc-1
[15] = tested on: prostate cancer (Du-145) cell line; assay: MTT cancer cell proliferation, Du-145; assay type: cell-based; details: Homo sapiens, DU-145; MTT, 72 hours; read-out: IC50 proliferation Du-145
[16] = tested on: prostate cancer (PC-3) cell line; assay: MTT cancer cell proliferation, PC-3; assay type: cell-based; details: Homo sapiens, PC-3; MTT, 72 hours; read-out: IC50 proliferation PC-3
[17] = tested on: xenografts of human prostate cancer PC3; assay: Human prostate cancer PC-3 xenografts in nude mice; assay type: in vivo, BALB/c nude mice; details: PC-3 xenograft, 100 mg/kg intragastric once every day, 28 days
[18] = tested on: multiple myeloma (RPMI8226) cell line; assay: MTT cancer cell proliferation, RPMI8226; assay type: cell-based; details: Homo sapiens, RPMI-8226; MTT, 72 hours; read-out: IC50 proliferation RPMI8226

Chain of DYRK2 kinase (Q92630 whole entry): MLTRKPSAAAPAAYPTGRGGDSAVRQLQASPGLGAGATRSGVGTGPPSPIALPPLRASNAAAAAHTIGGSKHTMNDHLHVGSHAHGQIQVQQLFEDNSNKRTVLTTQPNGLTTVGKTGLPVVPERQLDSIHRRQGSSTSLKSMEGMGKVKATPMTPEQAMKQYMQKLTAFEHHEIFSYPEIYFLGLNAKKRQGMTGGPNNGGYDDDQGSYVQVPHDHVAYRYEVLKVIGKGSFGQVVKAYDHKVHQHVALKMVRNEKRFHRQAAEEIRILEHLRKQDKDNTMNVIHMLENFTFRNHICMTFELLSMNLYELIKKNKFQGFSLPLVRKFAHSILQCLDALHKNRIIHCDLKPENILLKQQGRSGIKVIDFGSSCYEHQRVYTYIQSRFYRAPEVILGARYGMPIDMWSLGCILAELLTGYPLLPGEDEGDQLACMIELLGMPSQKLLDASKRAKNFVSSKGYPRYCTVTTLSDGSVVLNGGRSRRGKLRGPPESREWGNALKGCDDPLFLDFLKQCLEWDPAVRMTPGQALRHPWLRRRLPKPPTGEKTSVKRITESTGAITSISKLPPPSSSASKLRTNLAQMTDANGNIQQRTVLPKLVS

SMILES | IC50 [1] [µM] | IC50 [2] [µM] | also measured
Fc1cnc(Nc2ccc(N3CCNCC3)cn2)nc1-c1ccc2ncsc2c1 [Example 8, 4-(benzothiazole-6-yl)-5-fluoro-N-(5-(piperazine-1-yl)pyridine-2-yl)pyrimidine-2-amine hydrochloride] | 0.085 | 0.129 | –
CC(C)N1CCN(Cc2ccc(Nc3ncc(F)c(-c4ccc5ncsc5c4)n3)nc2)CC1 [Example 11, 4-(benzothiazole-6-yl)-5-fluoro-N-(5-((4-isopropylpiperazine-1-yl)methyl)pyridine-2-yl)pyrimidine-2-amine] | 0.263 | 0.175 | –
Cc1nc2ccc(-c3nc(Nc4ccc(C(=O)N5CCNCC5)cn4)ncc3F)cc2s1 [Example 17, (6-((5-fluoro-4-(2-methylbenzothiazole-6-yl)pyrimidine-2-yl)amino)pyridine-3-yl)(piperazine-1-yl)ketone hydrochloride] | 0.027 | 0.093 | –
CN(C)c1nc2ccc(-c3nc(Nc4ccc(CN5CCN(S(C)(=O)=O)CC5)cn4)ncc3F)cc2s1 [Example 37, 6-(5-fluoro-2-((5-((4-(methanesulfonyl)piperazine-1-yl)methyl)pyridine-2-yl)amino)pyrimidine-4-yl)-N,N-dimethylbenzothiazole-2-amine] | – | > 10 | –
CCOC(=O)N1CCN(Cc2ccc(Nc3ncc(F)c(-c4ccc5nc(N(C)C)sc5c4)n3)nc2)CC1 [Example 38, ethyl 4-((6-((4-(2-(dimethylamino)benzothiazole-6-yl)-5-fluoropyrimidine-2-yl)amino)pyridine-3-yl)methyl)piperazine-1-carboxylate] | – | > 1 | –
CC(C)N1CCN(C(=O)c2ccc(Nc3ncc(F)c(-c4ccc5nc(N(C)C)sc5c4)n3)nc2)CC1 [Example 39, (6-((4-(2-(dimethylamino)benzothiazole-6-yl)-5-fluoropyrimidine-2-yl)amino)pyridine-3-yl)(4-isopropylpiperazine-1-yl)ketone] | 0.016 | 0.057 | –
CN(C)c1nc2ccc(-c3nc(Nc4ccc(N5CCN(C(=O)OC(C)(C)C)CC5)cn4)ncc3F)cc2s1 [Example 40, tert-butyl 4-(6-((4-(2-(dimethylamino)benzothiazole-6-yl)-5-fluoropyrimidine-2-yl)amino)pyridine-3-yl)piperazine-1-carboxylate] | – | > 1 | –
CN(C)c1nc2ccc(-c3nc(Nc4ccc(N5CCNCC5)cn4)ncc3F)cc2s1 [Example 41, 6-(5-fluoro-2-((5-(piperazine-1-yl)pyridine-2-yl)amino)pyrimidine-4-yl)-N,N-dimethylbenzothiazole-2-amine hydrochloride] | – | 0.061 | –
CC(=O)c1c(C)c2cnc(Nc3ccc(N4CCNCC4)cn3)nc2n(C2CCCC2)c1=O [Palbociclib, reference compound] | – | – | relative tumor proliferation rate T/C(%) [3]: 39.6%; tumor growth inhibition rate [3]: 60.4%; IC50 [4]: 4.45 µM; IC50 [5]: 4.37 µM; IC50 [6]: 4.23 µM; IC50 [7]: 4.2 µM; IC50 [8]: 4.35 µM; IC50 [9]: 4.14 µM; IC50 [10]: 3.84 µM; IC50 [11]: 2.02 µM; IC50 [12]: 4.49 µM; IC50 [13]: 4.01 µM; IC50 [14]: 4.16 µM; IC50 [15]: 4.57 µM; IC50 [16]: 4.57 µM; relative tumor proliferation rate T/C(%) [17]: 35.5%; tumor growth inhibition rate [17]: 64.5%; IC50 [18]: 2.31 µM

Second part, led by results:

IC50 [1] [µM] | IC50 [2] [µM] | SMILES | also measured
0.197 | 0.015 | CCN1CCN(Cc2ccc(Nc3ncc(F)c(-c4ccc5nc(N(CC)CC)sc5c4)n3)nc2)CC1 [Example 43] | –
– | > 1 | CCN(CC)c1nc2ccc(-c3nc(Nc4ccc(CN5CCN(C(=O)OC(C)(C)C)CC5)cn4)ncc3F)cc2s1 [Example 44, tert-butyl 4-((6-((4-(2-(diethylamino)benzothiazole-6-yl)-5-fluoropyrimidine-2-yl)amino)pyridine-3-yl)methyl)piperazine-1-carboxylate] | –
0.29 | 0.045 | CCN(CC)c1nc2ccc(-c3nc(Nc4ccc(CN5CCNCC5)cn4)ncc3F)cc2s1 [Example 45, N,N-diethyl-6-(5-fluoro-2-((5-(piperazine-1-ylmethyl)pyridine-2-yl)amino)pyrimidine-4-yl)benzothiazole-2-amine hydrochloride] | –
– | > 10 | CCN(CC)c1nc2ccc(-c3nc(Nc4ccc(CN5CCN(S(C)(=O)=O)CC5)cn4)ncc3F)cc2s1 [Example 48, N,N-diethyl-6-(5-fluoro-2-((5-((4-(methanesulfonyl)piperazine-1-yl)methyl)pyridine-2-yl)amino)pyrimidine-4-yl)benzothiazole-2-amine] | –
– | > 10 | CCOC(=O)N1CCN(Cc2ccc(Nc3ncc(F)c(-c4ccc5nc(N(CC)CC)sc5c4)n3)nc2)CC1 [Example 49, ethyl 4-((6-((4-(2-(diethylamino)benzothiazole-6-yl)-5-fluoropyrimidine-2-yl)amino)pyridine-3-yl)methyl)piperazine-1-carboxylate] | –
– | 0.031 | CCN(CC)c1nc2ccc(-c3nc(Nc4ccc(CN5CCN(C(C)C)CC5)cn4)ncc3F)cc2s1 [Example 50] | –
– | 0.008 | CCN(CC)c1nc2ccc(-c3nc(Nc4ccc(C(=O)N5CCN(C(C)C)CC5)cn4)ncc3F)cc2s1 [Example 51, (6-((4-(2-(diethylamino)benzothiazole-6-yl)-5-fluoropyrimidine-2-yl)amino)pyridine-3-yl)(4-isopropylpiperazine-1-yl)ketone] | –
